Data set [1] can be described thus: Solubility of CY1-4 (excess sample shaken in a 37 °C water bath for 48 h, HPLC). The class given is physicochemical. Conditions: thermodynamic from solid. How it is done: The excess MSNM@CY1-4 was placed in deionized water and was shaken in a 37 °C water bath for 48 h. The supernatant was filtered after centrifugation at 10,000 rpm, and the filtrate was collected. The CY1-4 was measured using HPLC to calculate the solubility of CY1-4.

Data set [2] in a line: In vitro dissolution of CY1-4 in artificial gastric fluid (pH 1.2) and artificial intestinal fluid (pH 6.8). The class given is physicochemical. How it is done: MSNM@CY1-4 (equivalent to 3 mg of CY1-4) was dispersed in 600 mL artificial gastric fluid (pH 1.2 containing 0.1% (v/v) Tween-80) or 600 mL artificial intestinal fluid (pH 6.8 containing 0.1% (v/v) Tween-80) at 37 °C and 100 rpm. Samples were taken at 0, 2, 5, 12, 20, 40, and 60 min. Each sample was filtered through a 0.22 μm filter membrane and determined by HPLC.

On the set-up of data set [3]: method as in PMID 28053021. Conditions: cited from earlier work.
The subject of data set [4] is unresectable metastatic melanoma. Conditions: combined with Keytruda vs Keytruda alone; phase III, 2018; cited from earlier work.
Data set [5] has as its system recurrent malignant glioma. Further details: method as in PMID 32436060. The following applies: up to 500 mg BID; patients with recurrent malignant glioma; cited from earlier work.

The text below walks through data of publication PMC11676189, “Improving the Anti-Tumor Effect of Indoleamine 2,3-Dioxygenase Inhibitor CY1-4 by CY1-4 Nano-Skeleton Drug Delivery System” (Journal of Functional Biomaterials, 2024).

Each structure is given as a SMILES string. Converted amounts (≈) assume the structure as drawn.

By solubility is commonly meant how much of the substance goes into solution per volume. A lower solubility goes with little dissolved substance. Turning to `O=C1c2cc([N+](=O)[O-])ccc2-n2c1nc1ncccc1c2=O` [CY1-4, 9-nitropyridine [2′,3′:4,5] pyrimido [1,2-α] indole-5,11-dione], the solubility at 48 h in data set [1] (deionized water, water) is less than 100 µg/mL; in data set [1] (deionized water, water, 48 h) it was 1.16 ± 0.08 µg/mL (≈ 3.94 µM); in data set [1] (pH 1.2 medium, pH 1.2, simulated gastric fluid, pH = 1.2), 1.36 ± 0.04 µg/mL (≈ 4.62 µM); in data set [1] (pH 6.8 medium, pH 6.8, aqueous buffer, pH = 6.8), 1.19 ± 0.09 µg/mL (≈ 4.04 µM). Also, the CY1-4 dissolved entry in data set [2] (artificial gastric fluid pH 1.2, 5 min) is “about 6%”; in data set [2] (artificial intestinal fluid pH 6.8, 5 min), “about 4%”. For the same compound, the “CY1-4 dissolved after the 5 min maximum (decreased to)” value in data set [2] (artificial gastric fluid pH 1.2, after 5 min) was “about 1%”; in data set [2] (artificial intestinal fluid pH 6.8, after 5 min) it was “about 1%”.

Take `NS(=O)(=O)NCCNc1nonc1C(=NO)Nc1ccc(F)c(Br)c1` [Epacadostat]: the Tolerability entry in data set [3] was “well tolerated”. The “Inhibition of IDO1 activity” value in data set [3] (dose of ≥100 mg BID) is “could effectively inhibit the activity of IDO1”. Moreover, in data set [4], the Progression-free survival result is on record as “failed to significantly improve the progression-free survival”.

Consider `O=C1CC(c2c[nH]c3ccc(F)cc23)C(=O)N1` (stereo not drawn) [PF-06840003], for which, in data set [5], the Tolerability entry is recorded as “generally well tolerated”.
